The record followed here is ChEMBL document CHEMBL1201862, “PubChem BioAssay data set” (2004).

The structures appear in SMILES notation.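 Assay format: 96-well plates, 48-hour exposure. GI50 is the concentration that inhibits growth by half.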 Active and inactive are the calls of the source. Rule as the data show it: active = GI50 up to about 1.1 µM and inactive = higher. A value given as a limit tells only on which side of the number the result lay.

Test systems include KM-20L2; HOP-18; T47D; MDA-MB-435; NCI/ADR-RES; Hs-578T; DU-145; DMS-114; RXF 631.
Holding throughout (assay): inhibition of tumour cell growth, NCI panel, 48 h

As for `COc1cccc2[s+]snc12`, the figures for the GI50 with KM-20L2 and in the experiment on HOP-18 were > 100 µM (inactive) and 41.3 µM (inactive), respectively.

For `CC(C)N1CSC(=S)N(Cc2ccccc2)C1`, the GI50 with T47D is 4.29 µM (inactive); in the experiment with MDA-MB-435, 3.84 µM (inactive); with NCI/ADR-RES, > 10 µM (inactive); in the experiment on Hs-578T, > 10 µM (inactive).

Regarding `CC1(c2sccc2Cl)CC(c2sccc2Cl)=C(C#N)C(=C(C#N)C#N)N1` (stereo not drawn), the GI50 was 14.2 µM (inactive) in the experiment on T47D; 16 µM (inactive) with DU-145; 22 µM (inactive) with MDA-MB-435; 22.8 µM (inactive) in the experiment on NCI/ADR-RES; 21.5 µM (inactive) in the experiment with Hs-578T.

Consider `Nc1nc2cc(COc3ccc(C(=O)O)cc3)ccc2nc1-c1ccccc1`, for which the GI50 in the experiment on T47D, in the experiment with DU-145, in the experiment with MDA-MB-435 and with Hs-578T was > 10 µM (inactive) in each case.

Turning to `S=CN1CCCCC1`, the GI50 in the experiment with T47D, in the experiment on DU-145, in the experiment on MDA-MB-435, with NCI/ADR-RES and with Hs-578T was > 100 µM (inactive) each time.

As for `Cc1[nH]n(C2=NCCN2)c(=O)c1Cc1ccccc1`, the GI50 in the experiment on T47D, in the experiment on MDA-MB-435, with NCI/ADR-RES and with Hs-578T was > 100 µM (inactive) in each case.

Regarding `O=C(NN1C(=O)C(Cl)C1c1ccc([N+](=O)[O-])cc1)c1ccccc1O` (stereo not drawn), the GI50 with DMS-114 and in the experiment with KM-20L2 was > 100 µM (inactive) each time.

For the compound `CC1=C(C(=O)Nc2cccc(Cl)c2)C(c2ccccc2O)C(C(=O)Nc2cccc(Cl)c2)=C(C)N1`, the values for the GI50 in the experiment on DMS-114 and in the experiment on KM-20L2 were 22.4 µM (inactive) and 18.4 µM (inactive), respectively.

For `CC(=O)NNc1nc(C)c(C(=O)NNC(=O)C(=O)Nc2ccc([N+](=O)[O-])cc2[N+](=O)[O-])s1`, the values for the GI50 with DMS-114, with KM-20L2 and in the experiment with RXF 631 were 30.1 µM (inactive), > 100 µM (inactive) and 68.9 µM (inactive), respectively.

For the compound `CCOC(=O)C1=C(C)N(NC(N)=O)C2(O)CCCC(=O)C12C` (stereo not drawn), the GI50 with DMS-114, with KM-20L2, with RXF 631 and in the experiment on HOP-18 was > 100 µM (inactive) in each case.

For the compound `CC1(C)C(N2CCOCC2)CS1(=O)=O` (stereo not drawn), the GI50 in the experiment with T47D, in the experiment with DU-145, in the experiment with MDA-MB-435, in the experiment on NCI/ADR-RES and in the experiment on Hs-578T was > 10 µM (inactive) each time.

Consider `CSc1nc(SC)c2cnn(CC3CO3)c2n1` (stereo not drawn), for which the GI50 in the experiment with DMS-114 is 17.4 µM (inactive); with KM-20L2 it was 18.2 µM (inactive); with NCI/ADR-RES, 13.8 µM (inactive); in the experiment with HOP-18, 20.9 µM (inactive).

For the compound `COc1cc2cc3c4cc(OC)c(OC)cc4cc[n+]3cc2cc1OC`, the GI50 is 1 µM (active) in the experiment on DMS-114, > 57.4 µM (inactive) with KM-20L2, > 100 µM (inactive) with NCI/ADR-RES and > 100 µM (inactive) in the experiment on HOP-18.

Regarding `COc1ccc(NC(=O)C(=O)C(C(=O)c2ccccc2)C2OC(=O)c3ccccc32)c([N+](=O)[O-])c1` (stereo not drawn), the GI50 in the experiment on DMS-114, in the experiment on KM-20L2 and in the experiment on HOP-18 was > 100 µM (inactive) in each case.

Turning to `COc1cccc2c1C(=O)c1c(O)c3c(c(O)c1C2=O)CC(O)(C(=O)CO)CC3OC1CC(N)C(I)C(C)O1` (stereo not drawn), the GI50 in the experiment on DMS-114 is 1.63 µM (inactive); in the experiment on KM-20L2, 7.18 µM (inactive); with NCI/ADR-RES, 12.4 µM (inactive); with HOP-18, 7.96 µM (inactive).

For `CCOC(=O)C1=C(C)N(c2ccc(OC)cc2)C2(O)C=CC(O)=C3C(=O)c4ccccc4C(=O)C312` (stereo not drawn), the GI50 in the experiment on T47D is 12.5 µM (inactive); in the experiment on DU-145, 14.4 µM (inactive); in the experiment with MDA-MB-435 it was 4.2 µM (inactive); in the experiment on NCI/ADR-RES it was 3.01 µM (inactive); with Hs-578T, 5.47 µM (inactive).

For the compound `Cc1cc(N(CCOS(C)(=O)=O)CCOS(C)(=O)=O)ccc1C=O`, the values for the GI50 in the experiment on MDA-MB-435, with NCI/ADR-RES and in the experiment with Hs-578T were 11.5 µM (inactive), 11.7 µM (inactive) and 18.5 µM (inactive), respectively.
